According to US20040076968A1, “Method for detecting pre-disposition to hepatotoxicity” (priority 2000, published 2004):

Test system: UGT1A gene 3′UTR (exon 5)
Assay: Association of the UGT1A 3′UTR polymorphism with liver function abnormality in tolcapone-treated patients (case-control genotyping)
Type: in vivo, human
Conditions: UGT1A-3′_908
Procedure: Disease severity had already been controlled for by the original study inclusion criteria.
In the KTC format, the generation of double-stranded amplification product is monitored using a DNA intercalating dye and a thermal cycler which has a fluorescence-detecting CCD camera attached (PE-Bipsystems GeneAmp 5700 Sequence Detection System). Fluorescence in each well of the PCR amplification plate is measured at each cycle of annealing and denaturation. The cycle at which the relative fluorescence reached a threshold of 0.5 using the SDS sofiware from PE-Biosystems was defined as the Ct.
The amplification reactions were designed to be allele-specific, so that the amplification reaction was positive if the polymorphism was present and the amplification reaction was negative if the polymorphism was absent. For each bi-allelic polymorphism, one well of the amplification plate was set up to be specific for allele 1 and a second well was set up to be specific for allele 2. For each polymorphism to be detected, three primers were designed—two allele-specific primers and one common primer (Table 3). Reactions for allele 1 contained allele 1-specific primer and the common primer and reactions for allele 2 contained allele 2-specific primer and the common primer.
The Ct of each amplification reaction was determined and the difference between the Ct for allele 1 and allele 2 (delta Ct) was, used as the assay result. Samples with delta Cts between −3.0 and 3.0 were considered heterozygous (A1/A2). Samples with delta Cts below −3.0 were considered homozygous for A1 (A1/A1); samples with delta Cts above 3.0 were considered homozygous for A2 (A2/A2).
The patient samples were divided into two groups.
For each genotype, the following analyses were performed:
a) Analysis of the entire genotype: patients were classified according to the following three categories: homozygous 1/1 (two copies of allele 1 and no copies of allele 2), heterozygous 1/2 (one copy of allele 1 and one copy of allele 2) or homozygous 2/2 (no copies of allele 1 and two copies of allele 2). Analysis was conducted to assess whether there were differences in the proportion of case patients in each of these groups, compared with the proportion of control patients. The Cochran-Maentel-Hanszel (CMH) test was applied to the data presented in a 2-by-3 table (the two columns indicating presence or absence of liver function abnormality and the three rows indicating the three categories of the genotype).
b) Analysis of alleles: the presence of allele 1 or 2 in case patients was compared to the presence of the respective allele in the control patients.
c) Analysis of allele counts: this analysis was conducted to compare the distribution of the alleles in patients with liver function abnormality to that of patients without abnormality. The total number of copies of allele 1 among patients with liver function abnormality was compared with the total number of copies of allele 2 among these case patients. The CMH test was applied to the data using a 2-by-2 table (the two columns indicating presence or absence of liver function abnormality and the two rows indicating the two allele counts).
All markers showing significant association to elevated liver transaminases corresponded to SNPs in the UGT1 genes.

Cc1ccc(C(=O)c2cc(O)c(O)c([N+](=O)[O-])c2)cc1 [tolcapone]
n (%) of patients (Allele C Absent, Liver Function Abnormality Absent): 14 (5.1%)
n (%) of patients (Allele C Absent, Liver Function Abnormality Present): 4 (3.0%)
n (%) of patients (Allele C Present, Liver Function Abnormality Absent): 260 (94.9%)
n (%) of patients (Allele C Present, Liver Function Abnormality Present): 131 (97.0%)
n (%) of patients (Allele G Absent, Liver Function Abnormality Absent): 163 (59.5%)
n (%) of patients (Allele G Absent, Liver Function Abnormality Present): 101 (74.8%)
n (%) of patients (Allele G Present, Liver Function Abnormality Absent): 111 (40.5%)
n (%) of patients (Allele G Present, Liver Function Abnormality Present): 34 (25.2%)
n (%) of allele copies (Count Allele C, Liver Function Abnormality Absent): 423 (77.2%)
n (%) of allele copies (Count Allele C, Liver Function Abnormality Present): 232 (85.9%)
n (%) of allele copies (Count Allele G, Liver Function Abnormality Absent): 125 (22.8%)
n (%) of allele copies (Count Allele G, Liver Function Abnormality Present): 38 (14.1%)
n (%) of patients (Genotype Heterozygous G/C, Liver Function Abnormality Absent): 97 (35.4%)
n (%) of patients (Genotype Heterozygous G/C, Liver Function Abnormality Present): 30 (22.2%)
n (%) of patients (Genotype Homozygous C/C, Liver Function Abnormality Absent): 163 (59.5%)
n (%) of patients (Genotype Homozygous C/C, Liver Function Abnormality Present): 101 (74.8%)
n (%) of patients (Genotype Homozygous G/G, Liver Function Abnormality Absent): 14 (5.1%)
n (%) of patients (Genotype Homozygous G/G, Liver Function Abnormality Present): 4 (3.0%)
